Results: US8497298B2, “Use of benzo-fused heterocycle sulfamide derivatives for lowering lipids and lowering blood glucose levels” (Janssen Pharmaceutica NV, priority 2005, dated 2013)

Columns and labels:
[1] = tested on: Zucker diabetic fatty (ZDF Gmi-fa/fa) rats; assay: Zucker Diabetic Fatty Rats Assay with 29 day wash-out (Example 16); type: in vivo, rat; conditions: for Blood Glucose Level Day 0: Day 0 (baseline), ad lib fed; for Blood Glucose Level Day 36: then 29 days wash-out
Method: (§1) Compound #8 was suspended in 0.5% Methocel using a hand held homogenizer to reduce the particle size and a magnetic stir bar and stir plate to keep the particles homogeneously suspended throughout the dosing period. 0.5% Hydroxypropyl Methylcellulose (Methocel) used as vehicle/control. Compound #8 was tested in both diabetic models of mouse and rat.
(§2) In this study, female Zucker diabetic fatty (ZDF Gmi-fa/fa) rats were selected for glucose lowering effect. ZDF rats from (Charles River Laboratories, Wilmington, Mass.) at 7 weeks of age were individually housed and fed with C13004 diet (obtained from Research Diets, New Brunswick, N.J.). All of the rats were quarantined for a period of one week before transfer to the animal procedure room. A drop of blood (about 2 microliters) was collected by tail puncture and glucose concentration was detected with a glucometer (OneTouch UltraSmart, Lifescan, Milpitas, Calif.).
ZDF rats at 8 weeks of age were randomized into four treatment groups based on glucose values (first criterion, average of 150 mg/dL) and body weight (second criterion, average of 240 g). 13 rats were allocated into 4 treatment groups of 3 rats each for Compound #8 treated groups and 4 rats for the non-treated group. The three groups were then treated with 10 mg/kg Compound #8, 30 mg/kg Compound #8, and 100 mg/kg Compound #8 in 0.5 methylcellulose, respectively.
The rats were orally gavaged once daily (at 1500-1700 hour) with vehicle control (0.5% Methocel, pH7.4) or vehicle containing Compound #8 for 7 days. The dosing volume was 5 mL/kg body weight (1.2 mL for 250 gram rat). The rats were fed ad lib throughout the study. The rats were then allowed 29 days of wash-out period, where no dosing was administered.
Basal glucose levels after treatments were measured on Day 0 (baseline) and Day 36 (after 7 days dosing and 29 days wash-out) in ad lib fed rats with a glucometer (OneTouch UltraSmart, Lifescan, Milpitas, Calif.) after collecting two microliters of blood through tail puncture.
Data from this study was analyzed using the standard two-tailed Student's t-test and are expressed below as means and standard errors, with results as listed in Table 15 below.

[2] = tested on: Zucker diabetic fatty (ZDF Gmi-fa/fa) rats; assay: Oral Glucose Tolerance Test (OGTT) in Zucker diabetic fatty rats, Day 7 (Example 15); type: in vivo, rat; conditions: for AUC for blood glucose (OGTT) / OGTT blood glucose 30 min / OGTT blood glucose 60 min / OGTT blood glucose 90 min / OGTT blood glucose 120 min: Day 7; for OGTT blood glucose 0 min: Day 7, 4 hour-fasted, 2g/kg glucose
Method: as §1
as §2, with “effect and oral glucose tolerance test (OGTT) studies.” for “effect.”
ZDF rats at 8 weeks of age were randomized into four treatment groups based on glucose values (first criterion, average of 150 mg/dL) and body weight (second criterion, average of 240 g). 32 rats were allocated into 4 treatment groups of 8 rats each. The four groups were then treated with 0.5% Methocel (vehicle), 10 mg/kg Compound #8, 30 mg/kg Compound #8, and 100 mg/kg Compound #8 in vehicle, respectively.
The rats were orally gavaged once daily (at 1500-1700 hour) with vehicle control (0.5% Methocel, pH7.4) or vehicle containing Compound #8 for 7 days. The dosing volume was 5 mL/kg body weight (1.2 mL for 250 gram rat). The rats were fed ad lib throughout the study.
Basal glucose levels after treatments were measured on Day 4 and Day 6 in 2 hour fasted rats with a glucometer (OneTouch UltraSmart, Lifescan, Milpitas, Calif.) after collecting two microliters of blood through tail puncture. Oral Glucose Tolerance Test (OGTT) was performed on Day 7 in 4 hour-fasted rats. Two hours after being dosed with Compound #8 or vehicle, the rats were gavaged with a 2g/kg of 50% glucose solution right after basal glucose levels measurement (0 minute). Blood glucose levels were then measured at 30, 60, 90 and 120 minutes through tail puncture.
Data from this study was analyzed using the standard two-tailed Student's t-test and are expressed below as means and standard errors.

Compound: NS(=O)(=O)NC[C@H]1COc2cc(Cl)ccc2O1 [Compound #8, (2S)-(−)-N-(6-Chloro-2,3-dihydro-benzo[1,4]dioxin-2-ylmethyl)-sulfamide]
- Blood Glucose Level Day 0 ([1]; 10 mg/kg group): 222 ± 20 mg/dL
- Blood Glucose Level Day 36 ([1]; 10 mg/kg oral once daily 7 days): 295 ± 81 mg/dL
- Blood Glucose Level Day 0 ([1]; 30 mg/kg group): 229 ± 23 mg/dL
- Blood Glucose Level Day 36 ([1]; 30 mg/kg oral once daily 7 days): 247 ± 86 mg/dL
- Blood Glucose Level Day 0 ([1]; 100 mg/kg group): 228 ± 18 mg/dL
- Blood Glucose Level Day 36 ([1]; 100 mg/kg oral once daily 7 days): 219 ± 39 mg/dL
- AUC for blood glucose (OGTT) ([2]; 10 mg/kg): 33279 ± 3607 mg·min/dL
- OGTT blood glucose 30 min ([2]; 10 mg/kg): 281 ± 30
- OGTT blood glucose 60 min ([2]; 10 mg/kg): 316 ± 33
- OGTT blood glucose 90 min ([2]; 10 mg/kg): 293 ± 24
- OGTT blood glucose 120 min ([2]; 10 mg/kg): 252 ± 30
- OGTT blood glucose 0 min ([2]; 10 mg/kg): 186 ± 30
- AUC for blood glucose (OGTT) ([2]; 30 mg/kg): 28556 ± 2477 mg·min/dL
- OGTT blood glucose 30 min ([2]; 30 mg/kg): 244 ± 24
- OGTT blood glucose 60 min ([2]; 30 mg/kg): 263 ± 18
- OGTT blood glucose 90 min ([2]; 30 mg/kg): 253 ± 23
- OGTT blood glucose 120 min ([2]; 30 mg/kg): 221 ± 18
- OGTT blood glucose 0 min ([2]; 30 mg/kg): 163 ± 18
- AUC for blood glucose (OGTT) ([2]; 100 mg/kg): 21529 ± 984 mg·min/dL
- OGTT blood glucose 30 min ([2]; 100 mg/kg): 209 ± 14
- OGTT blood glucose 60 min ([2]; 100 mg/kg): 200 ± 10
- OGTT blood glucose 90 min ([2]; 100 mg/kg): 175 ± 8
- OGTT blood glucose 120 min ([2]; 100 mg/kg): 145 ± 7
- OGTT blood glucose 0 min ([2]; 100 mg/kg): 123 ± 5
